The values that follow come from patent publication US8044211B2 (Chroma Therapeutics Ltd., priority 2006, dated 2011).

The target of one experiment is T1, p38 MAP Kinase a (Homo sapiens, UniProt Q16539).
T1 construct: purchased Upstate (Dundee UK)
Briefly: p38 MAP Kinase activity, radiometric filter-binding assay (Upstate). Format: biochemical. To be noted: IC50 range; ATP at or close to Km; read-out: Inhibitor activity versus p38 MAPKa. As to the method:
The ability of compounds to inhibit p38 MAP a Kinase activity was measured in an assay performed by Upstate (Dundee UK). In a final reaction volume of 25 μL, p38 MAP Kinase a (5-10 mU) is incubated with 25 mM Tris pH 7.5, 0.002 mMEGTA, 0.33 mg/mL myelin basic protein, 10 mM MgAcetate and [g-33P-ATP] (specific activity approx. 500 cpm/pmol, concentration as required). The reaction is initiated by the addition of the MgATP mix. After incubation for 40 minutes at room temperature, the reaction is stopped by the addition of 5 μL of a 3% phosphoric acid solution. 10 μL of the reaction is then spotted onto a P30 filtermat and washed three times for 5 minutes in 75 mM phosphoric acid and once in methanol prior to drying and scintillation counting.
Duplicate data points are generated from a ⅓ log dilution series of a stock solution in DMSO. Nine dilutions steps are made from a top concentration of 10 μM, and a ‘no compound’ blank is included. The standard radiometric filter-binding assay is performed at an ATP concentration at, or close to, the Km. Data from scintillation counts are collected and subjected to free-fit analysis by Prism software. From the curve generated, the concentration giving 50% inhibition is determined and reported.

The subject of another experiment is THP-1 TNFα release. Briefly: LPS-stimulation of THP-1 cells, TNF-α by ELISA. Format: cell-based. To be noted: Homo sapiens, THP-1; IC50 range; LPS 1 μg/ml, 6 hrs; read-out: Inhibitor activity versus THP-1 TNFα release. The procedure: THP-1 cells were plated in 100 μl at a density of 4×10^4 cells/well in V-bottomed 96 well tissue culture treated plates and incubated at 37° C. in 5% CO2 for 16 hrs. 2 hrs after the addition of the inhibitor in […], of tissue culture media, the cells were stimulated with LPS (E. coli strain 005:B5, Sigma) at a final concentration of 1 μg/ml and incubated at 37° C. in 5% CO2 for 6 hrs. TNF-α levels were measured from cell-free supernatants by sandwich ELISA (R&D Systems #QTA00B).

Structures can show the parent of a compound that is named as a salt.

T1 sequence (Q16539 whole entry): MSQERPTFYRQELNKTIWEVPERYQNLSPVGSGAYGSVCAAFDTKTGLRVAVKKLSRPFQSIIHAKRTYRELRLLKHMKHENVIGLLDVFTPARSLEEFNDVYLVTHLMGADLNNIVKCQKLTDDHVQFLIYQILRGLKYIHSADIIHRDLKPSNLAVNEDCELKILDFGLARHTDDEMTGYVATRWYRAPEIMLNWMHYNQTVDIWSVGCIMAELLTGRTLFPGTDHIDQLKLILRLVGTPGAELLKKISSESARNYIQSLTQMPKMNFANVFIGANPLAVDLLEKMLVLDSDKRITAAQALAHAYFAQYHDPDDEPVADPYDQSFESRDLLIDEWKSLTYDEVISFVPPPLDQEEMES

For the compound `CCOC(=O)[C@H](CC(C)C)NCCCOc1cc(F)c(-n2c(N)c(C(=O)c3ccc(F)cc3)ccc2=O)c(F)c1` [Example 16, Ethyl N-(3-{4-[6-amino-5-(4-fluorobenzoyl)-2-oxopyridin-1(2H)-yl]-3,5-difluorophenoxy}propyl)-L-leucinate], the IC50 on p38 MAP Kinase a and with THP-1 TNFα release was under 100 nM in each case.
`Cc1cc(C(=O)c2ccc(=O)n(-c3c(F)cc(OCCCN[C@H](C(=O)OC4CCCC4)c4ccccc4)cc3F)c2N)ccc1F` [Example 17, Cyclopentyl(S)-(3-{4-[6-Amino-5-(4-fluoro-3-methylbenzoyl)-2-oxo-2H-pyridin-1-yl]-3,5-difluorophenoxy}propylamino) phenylacetate]: the IC50 at p38 MAP Kinase a and in the experiment on THP-1 TNFα release was under 100 nM in each case.
Consider `Cc1cc(C(=O)c2ccc(=O)n(-c3c(F)cc(OCCCN[C@@H](Cc4ccccc4)C(=O)OC4CCCC4)cc3F)c2N)ccc1F` [Example 18, Cyclopentyl(S)-2-(3-{4-[6-Amino-5-(4-fluoro-3-methylbenzoyl)-2-oxo-2H-pyridin-1-yl]-3,5-difluorophenoxy}propylamino)-3-phenylpropionate], for which the IC50 on p38 MAP Kinase a and in the experiment with THP-1 TNFα release was under 100 nM in each case.
As to `Nc1c(C(=O)c2ccc(F)cc2)ccc(=O)n1-c1ccc(OCCCN[C@H](C(=O)OC2CCCC2)c2ccccc2)cc1` [Example 23, Cyclopentyl(S)-(3-{4-[6-Amino-5-(4-fluorobenzoyl)-2-oxo-2H-pyridin-1-yl]-phenoxy}propylamino)phenylacetate], the IC50 was under 100 nM at p38 MAP Kinase a and 100 to 1000 nM in the experiment with THP-1 TNFα release.
Regarding `Nc1c(C(=O)c2ccc(F)cc2)ccc(=O)n1-c1ccc(OCCCN[C@@H](Cc2ccccc2)C(=O)OC2CCCC2)cc1` [Example 24, Cyclopentyl(S)-2-(3-{4-[6-Amino-5-(4-fluorobenzoyl)-2-oxo-2H-pyridin-1-yl]phenoxy}propylamino)-3-phenylpropionate], the results for the IC50 at p38 MAP Kinase a and with THP-1 TNFα release were under 100 nM and 100 to 1000 nM, respectively.
For `Cc1cc(C(=O)c2ccc(=O)n(-c3ccc(OCCCN[C@H](C(=O)OC4CCCC4)c4ccccc4)cc3)c2N)ccc1F` [Example 26], in that order: under 100 nM and 100 to 1000 nM.
Taken in the same sequence, the figures for `Nc1c(C(=O)c2ccc(F)cc2F)ccc(=O)n1-c1ccc(OCCCN[C@H](C(=O)OC2CCCC2)c2ccccc2)cc1` [Example 28, Cyclopentyl(S)-(3-{4-[6-Amino-5-(2,4-difluorobenzoyl)-2-oxo-2H-pyridin-1-yl]1-phenoxy}propylamino)phenyl acetate] were under 100 nM and under 100 nM.
As for `Nc1c(C(=O)c2ccc(F)cc2F)ccc(=O)n1-c1ccc(OCCCN[C@@H](Cc2ccccc2)C(=O)OC2CCCC2)cc1` [Example 29, Cyclopentyl(S)-2-(3-{4-[6-Amino-5-(2,4-difluorobenzoyl)-2-oxo-2H-pyridin-1-yl]phenoxy}propylamino)-3-phenyl propionate], the values for the IC50 at p38 MAP Kinase a and in the experiment with THP-1 TNFα release were under 100 nM and 100 to 1000 nM, respectively.
In the case of `CC(C)C[C@H](NCCCOc1ccc(-n2c(N)c(C(=O)c3ccc(F)cc3F)ccc2=O)cc1)C(=O)OC1CCCC1` [Example 30, Cyclopentyl(S)-2-(3-{4-[6-Amino-5-(2,4-difluorobenzoyl)-2-oxo-2H-pyridin-1-yl]phenoxy}propylamino)-4-methyl pentanoate], the IC50 on p38 MAP Kinase a and in the experiment on THP-1 TNFα release was under 100 nM in each case.
Take `Nc1c(C(=O)c2ccc(F)cc2)ccc(=O)n1-c1c(F)cc(OC2CCC(N[C@@H](Cc3ccccc3)C(=O)OC3CCCC3)CC2)cc1F` (stereo partly shown) [Example 31, trifluoroacetate]: the IC50 at p38 MAP Kinase a and in the experiment with THP-1 TNFα release was under 100 nM each time.
With `Nc1c(C(=O)c2ccc(F)cc2)ccc(=O)n1-c1c(F)cc(OC2CCC(N[C@H](C(=O)OC3CCCC3)c3ccccc3)CC2)cc1F` (stereo partly drawn) [Example 32, Cyclopentyl(2S)-[(4-{4-[6-amino-5-(4-fluorobenzoyl)-2-oxopyridin-1(2H)-yl]-3,5-difluorophenoxy}cyclohexyl)amino](phenyl)acetate], the IC50 at p38 MAP Kinase a and with THP-1 TNFα release was under 100 nM each time.
`CC(C)C[C@H](NC1CCC(Oc2cc(F)c(-n3c(N)c(C(=O)c4ccc(F)cc4)ccc3=O)c(F)c2)CC1)C(=O)OC1CCCC1` (stereo partly drawn) [Example 33, Cyclopentyl(S)-2-(4-{4-[6-Amino-5-(4-fluorobenzoyl)-2-oxo-2H-pyridin-1-yl]-3,5-difluorophenoxy}cyclohexylamino)-4-methylpentanoate]: the IC50 on p38 MAP Kinase a and in the experiment on THP-1 TNFα release was under 100 nM throughout.
Regarding `CC(C)(C)OC(=O)[C@H](Cc1ccccc1)NCCCOc1cc(F)c(-n2c(N)c(C(=O)c3ccc(F)cc3F)ccc2=O)c(F)c1` [Example 37, tert-Butyl(S)-2-(3-{4-[6-Amino-5-(2,4-difluorobenzoyl)-2-oxo-2H-pyridin-1-yl]-3,5-difluorophenoxy}-propylamino)-3-phenyl propionate], the IC50 on p38 MAP Kinase a is under 100 nM; with THP-1 TNFα release it was 100 to 1000 nM.
For `CC(C)C[C@H](NCCCOc1ccc(-n2c(N)c(C(=O)c3ccc(F)cc3F)ccc2=O)cc1)C(=O)OC(C)(C)C` [Example 39, tert-Butyl(S)-2-(3-{4-[6-Amino-5-(2,4-difluorobenzoyl)-2-oxo-2H-pyridin-1-yl]phenoxy}propylamino)-4-methyl pentanoate], the IC50 at p38 MAP Kinase a is under 100 nM; in the experiment on THP-1 TNFα release, 100 to 1000 nM.
For `Nc1c(C(=O)c2ccc(F)cc2F)ccc(=O)n1-c1c(F)cc(OCCCN[C@H](C(=O)OC2Cc3ccccc3C2)c2ccccc2)cc1F` [Example 40, 2,3-Dihydro-1H-inden-2-yl (2S)-[(3-{4-[6-amino-5-(2,4-difluorobenzoyl)-2-oxopyridin-1(2H)-yl]-3,5-difluorophenoxy}propyl)amino](phenyl)acetate], in that order: under 100 nM and under 100 nM.
Consider `Nc1c(C(=O)c2ccc(F)cc2F)ccc(=O)n1-c1c(F)cc(OCCCN[C@H](C(=O)OC2CC3CCC2C3)c2ccccc2)cc1F` (stereo partly drawn) [Example 43, Bicyclo[2.2.1]hept-2-yl(2S)-[(3-{4-[6-amino-5-(2,4-difluorobenzoyl)-2-oxopyridin-1(2H)-yl]-3,5-difluorophenoxy}propyl)amino](phenyl)acetate], for which the IC50 at p38 MAP Kinase a and with THP-1 TNFα release was under 100 nM each time.
In the case of `Nc1c(C(=O)c2ccc(F)cc2F)ccc(=O)n1-c1c(F)cc(OCCCN[C@@H](C(=O)OC2CC3CCC2C3)c2ccccc2)cc1F` (stereo partly drawn) [Example 44, Bicyclo[2.2.1]hept-2-yl (2R)-[(3-{4-[6-amino-5-(2,4-difluorobenzoyl)-2-oxopyridin-1(2H)-yl]-3,5-difluorophenoxy}propyl)amino](phenyl)acetate], the IC50 at p38 MAP Kinase a was 100 to 1000 nM; with THP-1 TNFα release, under 100 nM.
`CC(C)C[C@@H](NCCCOc1cc(F)c(-n2c(N)c(C(=O)c3ccc(F)cc3F)ccc2=O)c(F)c1)C(=O)OC1CCCC1` [Example 50, Cyclopentyl N-(3-{4-[6-amino-5-(2,4-difluorobenzoyl)-2-oxopyridin-1(2H)-yl]-3,5-difluorophenoxy}propyl)-D-leucinate]: the IC50 at p38 MAP Kinase a and with THP-1 TNFα release was under 100 nM each time.
On to `CC(C)C[C@@H](NCCCOc1cc(F)c(-n2c(N)c(C(=O)c3ccc(F)cc3F)ccc2=O)c(F)c1)C(=O)OC(C)(C)C` [Example 51, tert-Butyl N-(3-{4-[6-amino-5-(2,4-difluorobenzoyl)-2-oxopyridin-1(2H)-yl]-3,5-difluorophenoxy}propyl)-D-leucinate], for which the IC50 at p38 MAP Kinase a and with THP-1 TNFα release was under 100 nM throughout.
`CC(C)C[C@H](NCCCCCOc1cc(F)c(-n2c(N)c(C(=O)c3ccc(F)cc3F)ccc2=O)c(F)c1)C(=O)OC(C)(C)C` [Example 54, tert-Butyl N-(5-{4-[6-amino-5-(2,4-difluorobenzoyl)-2-oxopyridin-1(2H)-yl]-3,5-difluorophenoxy}pentyl)-L-leucinate]: the IC50 at p38 MAP Kinase a and with THP-1 TNFα release was under 100 nM throughout.
In the case of `CC(C)C[C@H](NCCCCCOc1cc(F)c(-n2c(N)c(C(=O)c3ccc(F)cc3)ccc2=O)c(F)c1)C(=O)OC1CCCC1` [Example 55, Cyclopentyl N-(5-{4-[6-amino-5-(4-fluorobenzoyl)-2-oxopyridin-1(2H)-yl]-3,5-difluorophenoxy}pentyl)-L-leucinate], the IC50 is 100 to 1000 nM at p38 MAP Kinase a and under 100 nM in the experiment on THP-1 TNFα release.
In the case of `CC(C)C[C@H](NC(=O)COc1ccc(-n2c(N)c(C(=O)c3ccc(F)cc3)ccc2=O)cc1)C(=O)OC1CCCC1` [Example 56, Cyclopentyl N-({4-[6-amino-5-(4-fluorobenzoyl)-2-oxopyridin-1(2H)-yl]phenoxy}acetyl)-L-leucinate], the IC50 on p38 MAP Kinase a is 100 to 1000 nM; with THP-1 TNFα release, over 1000 nM.
For `CC(C)C[C@H](NCCc1ccc(-n2c(N)c(C(=O)c3ccc(F)cc3F)ccc2=O)cc1)C(=O)OC(C)(C)C` [Example 60, tert-Butyl N-[2-(4-{6-amino-5-[(2,4-difluorophenyl)carbonyl]-2-oxopyridin-1(2H)-yl}phenyl)ethyl]-L-leucinate], in that order: 100 to 1000 nM and under 100 nM.
